Reference: US20120329761A1, “USE OF TIGECYCLINE FOR TREATMENT OF CANCER” (UNIVERSITY HEALTH NETWORK, priority 2010, published 2012)

Key:
[1] = test system: bacterial protein synthesis; settings: cited from earlier work
[2] = test system: TEX cells; assay: Chemical library screen, MTS assay; assay type: cell-based, human; settings: 10 μM, 72 hours
Text: (§1) To identify compounds active against leukemia stem cells, a library of drugs (n=312) with well-characterized pharmacokinetics and toxicology and a wide therapeutic window was compiled. This library was then screened to identify agents that reduced the viability of TEX and M9-ENL1 cells. TEX and M9-ENL1 cells were derived from lineage-depleted human cord blood cells (Lin-CB) transduced with TLS-ERG or MLL-ENL oncogenes, respectively, and, as shown previously, display properties of stem cells including hierarchal differentiation and marrow repopulation^14,16. In this screen, TEX and M9-ENL1 cells were treated with aliquots of the compounds. After incubation, cell growth and viability was measured by the MTS assay. From this screen, tigecycline was identified.
(§2) TEX, and M9-ENL-1 cells were seeded into 96-well polystyrene tissue culture plates (Corning). […] 72 (TEX) and 48 (M9-ENL-1) hours after incubation, cell growth and viability was measured by MTS assay. […]
(§3) Cell growth and viability was assessed by the MTS assay (Promega, Madison, Wis.) according to the manufacturer's instructions. Apoptosis and cell death was measured by Annexin V-fluoroscein isothiocyanate (FITC; Biovision Research Products, Mountain View, Calif.), propidium iodide staining and flow cytometry according to the manufacturer's instructions and as previously described^30. […]

[3] = test system: M9-ENL1 cells; assay: Chemical library screen, MTS assay; assay type: cell-based, human; settings: 10 μM, 48 hours
Text: as §1, §2, §3

[4] = rat, in vivo, 30 mg/kg/day; cited from earlier work
[5] = test system: primary human AML cells; assay type: in vivo, NOD-SCID mice; settings: 100 mg/kg i.p. daily for three weeks, vs vehicle control
Procedure: FIG. 3. Tigecycline has anti-leukemia activity in vivo. (A, B) Human leukemia (OCI-AML2) were injected subcutaneously into the flank of SCID mice. Seven days after injection, once tumors were palpable, mice were treated with tigecycline (50 mg/kg or 100 mg/kg twice daily by i.p. injection) or vehicle control (n=10 per group). Fourteen days after injection of cells, mice were sacrificed, tumors excised and the volume and mass of the tumors were measured. The tumor mass and the mean volume+SD are shown. Differences in tumor volume and mass were analyzed by an unpaired t-test: * p<0.001. (C) Tumours from two control mice, and three tigecycline-treated mice were excised after 5 days of treatment and total proteins were extracted and analyzed by western blotting for Cox-1, Cox-2, Cox-4, and tubulin. […] Following treatment, human leukemia cell engraftment in the injected right femur was measured by FACS analysis for human CD45^+CD19^−CD33^+ cells. […] Six weeks later, human leukemia cell engraftment in the injected right femur was measured by FACS analysis for human CD45^+CD19^−CD33^+ cells. […]
To assess tigecycline in mouse models of primary AML, primary human AML cells were isolated form a fresh peripheral blood sample from a patient with AML. A frozen aliquot was thawed, counted and resuspended in PBS. […]

For `CN(C)c1cc(NC(=O)CNC(C)(C)C)c(O)c2c1C[C@H]1C[C@H]3[C@H](N(C)C)C(O)=C(C(N)=O)C(=O)[C@@]3(O)C(O)=C1C2=O` [tigecycline], the “inhibition of bacterial protein synthesis, fold greater than minocycline” value ([1]; relative to minocycline) is given as 3 fold, the “inhibition of bacterial protein synthesis, fold greater than tetracycline” value ([1]; relative to tetracycline) is given as 20 fold and the “screen result, cell growth and viability” value [2] is given as “identified”. The “screen result, cell growth and viability” value [3] was “identified”, the toxicology findings [4] was “reversible anemia, thrombocytopenia, and leucopenia with a hypocellular bone marrow” and the “engraftment of human AML cells (CD45+CD33+CD19-) in marrow” value [5] was “significantly decreased”.
